The results in this text go back to patent publication US9567345B2, “Pharmaceutically active pyrazolo-triazine derivatives” (LEAD DISCOVERY CENTER GMBH, priority 2012, dated 2017).

Where two headings read alike, the source gives them in different places. A value given as a limit tells only on which side of the number the result lay.

Format in all cases: biochemical
The target of one experiment is T1, CDK2/CycA (Homo sapiens, UniProt P24941).
T1 construct: purchased Proqinase
In words: CDK2 Enzymatic Activity Assay (Lance Kinase Activity Assay, FRET). Particulars: for IC50: Table 5B, class symbols per IC50 [nM] ranges of b581, read-out: CDK2: Selectivity of CDK7 inhibition over CDK2 inhibition. In a few lines:
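Compounds in an 8-step, 1:3 dilution series were incubated 1 h at room temperature with CDK2/CycA, ULight-MBP substrate and ATP in pH 7.5 HEPES buffer.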

The target of another experiment is CDK7/CycH/Mat1 (Homo sapiens, UniProt P50613). In words: CDK7 Enzymatic Activity Assay (Lance Kinase Activity Assay, FRET). The procedure, abridged: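 TR-FRET (LANCE) kinase assay: CDK7/CycH/Mat1 phosphorylates Ulight-MBP substrate for 1 h at room temperature in pH 7.5 HEPES buffer; detection 1 h with Eu-labelled anti-phospho antibody plus EDTA.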
The target in another experiment is CDK9/Cyclin T1 (Homo sapiens, UniProt P50750). In words: CDK9 Enzymatic Activity Assay (Lance Kinase Activity Assay, FRET). To be noted: for IC50: Table 5B, class symbols per IC50 [nM] ranges of b581, read-out: CDK9: Selectivity of CDK7 inhibition over CDK9 inhibition. In a few lines:
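CDK9/cyclin T1 phosphorylation of a ULight-MBP peptide was run for 1 h at room temperature in pH 7.5 HEPES buffer with MgCl2, EGTA, DTT and Tween-20. It was followed by 1 h with Eu-anti-phospho-MBP antibody (4 nM) in EDTA detection buffer. TR-FRET loss gave IC50 from 8-point, 1:3 sigmoidal dose-response curves.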

Setting [1] is: CDK7/CycH/Mat1, 25 μM ATP final, class ranges, read-out: CDK7: IC50 [nM] for CDK7 inhibition.

Sequence of CDK9/Cyclin T1 (P50750 whole entry): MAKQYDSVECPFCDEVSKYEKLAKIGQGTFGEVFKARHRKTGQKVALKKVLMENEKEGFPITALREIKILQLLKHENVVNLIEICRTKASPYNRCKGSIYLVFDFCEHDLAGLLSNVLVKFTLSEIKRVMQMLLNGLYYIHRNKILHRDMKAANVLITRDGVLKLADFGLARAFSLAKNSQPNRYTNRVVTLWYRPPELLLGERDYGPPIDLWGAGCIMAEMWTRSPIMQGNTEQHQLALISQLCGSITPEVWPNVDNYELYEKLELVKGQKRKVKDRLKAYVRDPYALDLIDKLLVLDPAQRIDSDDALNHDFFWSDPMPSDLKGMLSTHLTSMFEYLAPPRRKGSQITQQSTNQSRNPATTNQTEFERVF
Sequence of CDK9/Cyclin T1 (O60563 whole entry partner): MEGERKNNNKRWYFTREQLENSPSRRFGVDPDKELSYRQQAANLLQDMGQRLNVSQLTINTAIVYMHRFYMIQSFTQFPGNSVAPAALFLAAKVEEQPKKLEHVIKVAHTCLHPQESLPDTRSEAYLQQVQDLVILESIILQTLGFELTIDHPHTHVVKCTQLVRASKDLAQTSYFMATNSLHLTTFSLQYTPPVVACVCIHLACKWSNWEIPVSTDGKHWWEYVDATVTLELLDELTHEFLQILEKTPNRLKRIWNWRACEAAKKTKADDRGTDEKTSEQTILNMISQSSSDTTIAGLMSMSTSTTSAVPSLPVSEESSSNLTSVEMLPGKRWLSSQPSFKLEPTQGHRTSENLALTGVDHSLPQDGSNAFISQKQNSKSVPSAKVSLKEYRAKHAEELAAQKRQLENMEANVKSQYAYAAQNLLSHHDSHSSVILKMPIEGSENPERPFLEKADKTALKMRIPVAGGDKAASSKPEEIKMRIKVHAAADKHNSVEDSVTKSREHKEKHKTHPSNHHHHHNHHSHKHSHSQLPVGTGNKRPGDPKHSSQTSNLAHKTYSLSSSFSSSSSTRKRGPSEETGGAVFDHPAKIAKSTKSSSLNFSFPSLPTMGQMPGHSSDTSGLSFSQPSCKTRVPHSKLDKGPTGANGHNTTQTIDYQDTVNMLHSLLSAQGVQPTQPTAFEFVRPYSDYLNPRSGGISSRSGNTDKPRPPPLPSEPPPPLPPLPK
Sequence of CDK7/CycH/Mat1 (P50613 whole entry): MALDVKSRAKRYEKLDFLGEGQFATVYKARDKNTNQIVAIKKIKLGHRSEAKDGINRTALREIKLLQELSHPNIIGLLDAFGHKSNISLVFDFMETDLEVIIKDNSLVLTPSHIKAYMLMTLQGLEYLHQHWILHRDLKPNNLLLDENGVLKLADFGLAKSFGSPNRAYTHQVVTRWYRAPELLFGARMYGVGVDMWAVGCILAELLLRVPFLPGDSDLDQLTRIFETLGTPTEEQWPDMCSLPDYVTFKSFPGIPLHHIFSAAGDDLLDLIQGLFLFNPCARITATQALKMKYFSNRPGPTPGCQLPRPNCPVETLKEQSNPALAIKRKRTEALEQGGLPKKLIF

As to `CCNC(=O)Oc1ccccc1CNc1nc(O[C@@H]2CCCNC2)nc2c(C(C)C)cnn12` [(VII-146), (R)-2-(((8-isopropyl-2-(piperidin-3-yloxy)pyrazolo[1,5-a][1,3,5]triazin-4-yl)amino)methyl)phenyl ethylcarbamate], the IC50 at CDK2/CycA is > 2500 nM; on CDK7/CycH/Mat1 (setting [1]), 10 to 25 nM; on CDK9/Cyclin T1 it was > 2500 nM.

`CC(C)c1cnn2c(NCc3ccccc3-c3nnnn3C)nc(O[C@@H]3CCCNC3)nc12` [(VII-29), (R)-8-isopropyl-N-(2-(1-methyl-1H-tetrazol-5-yl)benzyl)-2-(piperidin-3-yloxy)pyrazolo[1,5-a][1,3,5]triazin-4-amine]: the IC50 on CDK2/CycA was 50 to 500 nM; on CDK7/CycH/Mat1 (setting [1]) it was < 5 nM; on CDK7/CycH/Mat1 (Table 6, read-out: IC50 CDK7) it was < 5 nM; at CDK9/Cyclin T1, > 2500 nM. Besides, at CDK2/CycA (Table 6), the “Selectivity CDK7 over CDK2” value turned out to be 394 fold. The “Selectivity CDK7 over CDK9” value at CDK9/Cyclin T1 (Table 6) was 3255 fold.

With `CC(C)c1cnn2c(NCc3ccccc3C(N)=O)nc(O[C@@H]3CCCNC3)nc12` [(VII-096), (R)-2-(((8-isopropyl-2-(piperidin-3-yloxy)pyrazolo[1,5-a][1,3,5]triazin-4-yl)amino)methyl)benzamide], the results for the IC50 on CDK2/CycA, at CDK7/CycH/Mat1 (setting [1]) and on CDK9/Cyclin T1 were 50 to 500 nM, < 5 nM and 500 to 2500 nM, respectively.

For the compound `CC(C)c1cnn2c(NCc3ccccc3-n3cccn3)nc(C(=O)NCC3CCCNC3)nc12` (stereo not drawn) [(XII-4), 4-((2-(1H-pyrazol-1-yl)benzyl)amino)-8-isopropyl-N-(piperidin-3-ylmethyl)pyrazolo[1,5-a][1,3,5]triazine-2-carboxamide], the IC50 on CDK2/CycA is > 2500 nM; on CDK7/CycH/Mat1 (setting [1]) it was < 5 nM; on CDK9/Cyclin T1, > 2500 nM.

`CC(C)c1cnn2c(NCc3ccccc3-n3cccn3)nc(OC3CCNCC3)nc12` [(VII-01), N-(2-(1H-pyrazol-1-yl)benzyl)-8-isopropyl-2-(piperidin-4-yloxy) pyrazolo[1,5-a][1,3,5]triazin-4-amine]: the IC50 at CDK2/CycA was 50 to 500 nM; on CDK7/CycH/Mat1 (setting [1]), < 5 nM; at CDK9/Cyclin T1, > 2500 nM.

Take `CC(C)c1cnn2c(NCc3ccccc3OS(C)(=O)=O)nc(O[C@@H]3CCCNC3)nc12` [(VII-147), (R)-2-(((8-isopropyl-2-(piperidin-3-yloxy)pyrazolo[1,5-a][1,3,5]triazin-4-yl)amino)methyl)phenyl methanesulfonate]: the IC50 at CDK2/CycA was 50 to 500 nM; at CDK7/CycH/Mat1 (setting [1]), 5 to 10 nM; on CDK9/Cyclin T1, > 2500 nM.

Regarding `CC(C)c1cnn2c(NCc3ccccc3-n3cccn3)nc(NC3CCNC3)nc12` (stereo not drawn) [(VIII-043), N4-(2-(1H-pyrazol-1-yl)benzyl)-8-isopropyl-N2-(pyrrolidin-3-yl)pyrazolo[1,5-a][1,3,5]triazine-2,4-diamine], the IC50 on CDK2/CycA was 50 to 500 nM; on CDK7/CycH/Mat1 (setting [1]), 5 to 10 nM; at CDK9/Cyclin T1, > 2500 nM.

Turning to `CC(C)c1cnn2c(NCc3ccccc3-n3cccn3)nc(NCCCN3CCOCC3)nc12` [(VIII-044), N4-(2-(1H-pyrazol-1-yl)benzyl)-8-isopropyl-N2-(3-morpholinopropyl)pyrazolo[1,5-a][1,3,5]triazine-2,4-diamine], the IC50 was > 2500 nM on CDK2/CycA, > 25 nM at CDK7/CycH/Mat1 (setting [1]) and > 2500 nM on CDK9/Cyclin T1.

For `CC(C)c1cnn2c(NCc3c(F)cccc3-n3cccn3)nc(O[C@@H]3CCCNC3)nc12` [(VII-44), (R)-N-(2-fluoro-6-(1H-pyrazol-1-yl)benzyl)-8-isopropyl-2-(piperidin-3-yloxy)pyrazolo[1,5-a][1,3,5]triazin-4-amine], the IC50 is 50 to 500 nM at CDK2/CycA, < 5 nM at CDK7/CycH/Mat1 (setting [1]) and > 2500 nM on CDK9/Cyclin T1.

Turning to `CC(C)c1cnn2c(NCc3ccccc3S(=O)(=O)N3CCOCC3)nc(O[C@@H]3CCCNC3)nc12` [(VII-099), (R)-8-isopropyl-N-(2-(morpholinosulfonyl)benzyl)-2-(piperidin-3-yloxy)pyrazolo[1,5-a][1,3,5]triazin-4-amine], the IC50 on CDK2/CycA was 500 to 2500 nM; on CDK7/CycH/Mat1 (setting [1]), < 5 nM; at CDK9/Cyclin T1, > 2500 nM.

As to `CC(C)c1cnn2c(NCc3ccccc3N3CCCC3=O)nc(O[C@@H]3CCCNC3)nc12` [(VII-39), (R)-1-(2-(((8-isopropyl-2-(piperidin-3-yloxy)pyrazolo[1,5-a][1,3,5]triazin-4-yl)amino)methyl)phenyl)pyrrolidin-2-one], the IC50 is 50 to 500 nM at CDK2/CycA, < 5 nM on CDK7/CycH/Mat1 (setting [1]) and > 2500 nM at CDK9/Cyclin T1.

Take `CC(C)c1cnn2c(NCc3ccccc3-n3cccn3)nc(N3CCCC(N)C3)nc12` (stereo not drawn) [(VIII-053), N-(2-(1H-pyrazol-1-yl)benzyl)-2-(3-aminopiperidin-1-yl)-8-isopropylpyrazolo[1,5-a][1,3,5]triazin-4-amine]: the IC50 on CDK2/CycA was > 2500 nM; at CDK7/CycH/Mat1 (setting [1]), > 25 nM; at CDK9/Cyclin T1, > 2500 nM.

For the compound `CC(C)c1cnn2c(NCc3ccccc3-c3ccccc3)nc(OC3CCNCC3)nc12` [(VII-09), N-([1,1′-biphenyl]-2-ylmethyl)-8-isopropyl-2-(piperidin-4-yloxy)pyrazolo[1,5-a][1,3,5]triazin-4-amine], the values for the IC50 at CDK2/CycA, on CDK7/CycH/Mat1 (setting [1]) and on CDK9/Cyclin T1 were > 2500 nM, < 5 nM and > 2500 nM, respectively.

On to `CC(C)c1cnn2c(NCc3ccccc3C3=CCCCC3)nc(O[C@@H]3CCCNC3)nc12` [(VII-117), (R)-8-isopropyl-2-(piperidin-3-yloxy)-N-((2′,3′,4′,5′-tetrahydro-[1,1′-biphenyl]-2-yl)methyl)pyrazolo[1,5-a][1,3,5]triazin-4-amine], for which the IC50 was > 2500 nM at CDK2/CycA, > 25 nM at CDK7/CycH/Mat1 (setting [1]) and > 2500 nM at CDK9/Cyclin T1.

With `CC(C)c1cnn2c(NCc3ccccc3-n3cccn3)nc([S+]([O-])C3CCNCC3)nc12` (stereo not drawn) [(X-1), N-(2-(1H-pyrazol-1-yl)benzyl)-8-isopropyl-2-(piperidin-4-ylsulfinyl)pyrazolo[1,5-a][1,3,5]triazin-4-amine], the IC50 on CDK2/CycA was 50 to 500 nM; on CDK7/CycH/Mat1 (setting [1]), < 5 nM; at CDK9/Cyclin T1, 500 to 2500 nM.

For `CNS(=O)(=O)c1ccccc1CNc1nc(O[C@@H]2CCCNC2)nc2c(C(C)C)cnn12` [(VII-104), (R)-2-(((8-isopropyl-2-(piperidin-3-yloxy)pyrazolo[1,5-a][1,3,5]triazin-4-yl)amino)methyl)-N-methylbenzenesulfonamide], the IC50 on CDK2/CycA was 50 to 500 nM; on CDK7/CycH/Mat1 (setting [1]) it was < 5 nM; on CDK9/Cyclin T1, > 2500 nM.

On to `CC(C)c1cnn2c(NCc3ccccc3C(F)(F)F)nc(OC3CCN(C)CC3)nc12` [(VII-58), 8-isopropyl-2-((1-methylpiperidin-4-yl)oxy)-N-(2-(trifluoromethyl)benzyl)pyrazolo[1,5-a][1,3,5]triazin-4-amine], for which the IC50 is < 50 nM on CDK2/CycA, 10 to 25 nM on CDK7/CycH/Mat1 (setting [1]) and > 2500 nM on CDK9/Cyclin T1.

In the case of `CC(C)c1cnn2c(NCc3ccccc3-n3cccn3)nc(C(=O)N(C)CCN3CCCC3)nc12` [(XII-8), 4-((2-(1H-pyrazol-1-yl)benzyl)amino)-8-isopropyl-N-methyl-N-(2-(pyrrolidin-1-yl)ethyl)pyrazolo[1,5-a][1,3,5]triazine-2-carboxamide], the figures for the IC50 on CDK2/CycA, at CDK7/CycH/Mat1 (setting [1]) and on CDK9/Cyclin T1 were > 2500 nM, > 25 nM and > 2500 nM, respectively.

As to `CC(C)c1cnn2c(NCc3ccccc3-n3cccn3)nc(OCCN3CCNCC3)nc12` [(VII-124), N-(2-(1H-pyrazol-1-yl)benzyl)-8-isopropyl-2-(2-(piperazin-1-yl)ethoxy)pyrazolo[1,5-a][1,3,5]triazin-4-amine], the IC50 at CDK2/CycA is > 2500 nM; at CDK7/CycH/Mat1 (setting [1]) it was > 25 nM; at CDK9/Cyclin T1, > 2500 nM.
